In patent US20250163074A1, “CDK Inhibitors And Their Use As Pharmaceuticals” (Prelude Therapeutics Incorporated, priority 2020, published 2025) one finds IC50 data, which are given here for 14 compounds.

In test [1] the target is CDK4/Cyclin D1 (Homo sapiens (Human), UniProt P11802). Description: CDK4/CyclinD1 enzymatic activity assay (TR-FRET). The class given is biochemical. The note with it: CDK4/CyclinD1 1 nM, ATP 2 mM, read-out: CDK4_D1 IC50. The procedure:
CDK4/CyclinD1 Enzymatic Activity Assay
(§1) The inhibitory activity of compounds was evaluated in vitro using TR-FRET assay with white 384-well low volume microplate (Greiner Bio-One). CDK4/Cyclin D1 catalyzed phosphorylation of peptide in the presence and absence of compounds was measured. IC50 determination. Recombinant protein complex CDK4/Cyclin D1, expressed from insect cell, was purchased from ProQinase. Testing compounds were dissolved in DMSO at 0.1 mM and tested in 9-dose IC50 mode. The reaction mixture was prepared by mixing CDK4/CyclinD1 (1 nM final), ULight-4E-BP1 (100 nM final, Perkinelmer, TRF0128-D), and ATP (2 mM final) in assay buffer (20 mM of HEPES pH 7.4, 1 mM of EGTA, 0.05% BSA, 0.005% Tween 20, and 1 mM TCEP). The compound of interest in DMSO was added to each well in 3-fold serial dilution by dispenser (TECAN D300E). After 20 minutes preincubation at room temperature, MgCl2 (10 mM final) was added to initiate the reaction. Following a 60 minutes incubation at 37° C., the reaction was stopped by addition of 2 μL of quenching buffer consisting of Lance detection buffer (Perkinelmer CR97-100C), 2 nM LANCE Ultra Europium-anti-P-4E-BP1 (Perkinelmer, TRF0216-D), 10 mM EDTA, and incubate at room temperature for additional 60 minutes in dark. The reaction signal was measured by Envision multimode plate reader (PerkinElmer, 2102-0010). IC50 values were determined by fitting the data to the standard 4 parameters with Hill Slope using GraphPad Prism software.
For orientation: TR-FRET usually uses a lanthanide donor and a delayed reading to cut background.

Test [2] addresses CDK6/Cyclin D1 (Homo sapiens (Human), UniProt Q00534). Description: CDK6/CyclinD1 enzymatic activity assay (TR-FRET). It is filed as biochemical. The note with it: CDK6/Cyclin D1 1 nM, ATP 250 μM, read-out: CDK6_D1 IC50. The procedure:
CDK6/CyclinD1 Enzymatic Activity Assay
as §1, with “CDK6/Cyclin” for “CDK4/Cyclin”, “measured and used in” for “measured.”, “CDK6/Cyclin D1” for “CDK4/CyclinD1”, “(250 μM” for “(2 mM”, “temperature, 0.1 μL” for “temperature,”

Test [3] concerns MCF7 adenocarcinoma cell line. Description: Cell proliferation studies in MCF7 cells (ATP-Lite). The class given is cell-based. The note with it: 10 days incubation, cell viability by ATP-Lite luminescence, read-out: PROLIFERATION_CTG_MCF7 IC50. The procedure:
Cell Proliferation Studies in MCF7 Cells
Cell proliferation studies were conducted in MCF7 adenocarcinoma cell line. Cells were maintained in DMEM (Corning, Catalog #: 10-013-CV) supplemented with 10% v/v FBS (Gibco, Catalog #: 26140-079), 1% v/v Penicillin Streptomycin (Gibco, Catalog #15140-122) Cells were seeded in 384-well plates at a density of 100 or 200 cells/well. Compounds dissolved in DMSO were plated in quadruplicate using a digital dispenser (D300E, Tecan) and tested on a 9-point 3-fold serial dilution. Cells were incubated for 10 days in a 37° C. active humidified incubator at 5% CO2. A media exchange and second compound addition were performed on day 5. Cell viability was measured using the ATP-Lite 1-Step Luminescence reagent (Perkin Elmer, Catalog #: 6016731) as per manufacturer's instructions. Luminescence signal was measured with a multimode plate reader (Envision 2105, Perkin Elmer). Raw data files were imported to Dotmatics Screening Ultra for IC50 analysis. Luminescence values were normalized to both background and DMSO controls to obtain a percentage of viable cells relative to DMSO vehicle control.

Where two headings read alike, the source gives them in different places.

CDK6/Cyclin D1, sequence (Q00534 whole entry): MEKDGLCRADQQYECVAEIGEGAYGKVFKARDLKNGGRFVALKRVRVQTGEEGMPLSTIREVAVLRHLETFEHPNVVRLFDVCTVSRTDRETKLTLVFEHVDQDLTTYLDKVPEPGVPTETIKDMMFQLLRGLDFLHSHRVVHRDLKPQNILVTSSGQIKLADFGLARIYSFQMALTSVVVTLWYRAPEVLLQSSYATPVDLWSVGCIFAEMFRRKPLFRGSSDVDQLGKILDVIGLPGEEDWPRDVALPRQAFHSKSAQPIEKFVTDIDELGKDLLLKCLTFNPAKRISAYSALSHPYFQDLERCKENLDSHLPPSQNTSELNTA
CDK6/Cyclin D1, sequence (P24385 whole entry partner): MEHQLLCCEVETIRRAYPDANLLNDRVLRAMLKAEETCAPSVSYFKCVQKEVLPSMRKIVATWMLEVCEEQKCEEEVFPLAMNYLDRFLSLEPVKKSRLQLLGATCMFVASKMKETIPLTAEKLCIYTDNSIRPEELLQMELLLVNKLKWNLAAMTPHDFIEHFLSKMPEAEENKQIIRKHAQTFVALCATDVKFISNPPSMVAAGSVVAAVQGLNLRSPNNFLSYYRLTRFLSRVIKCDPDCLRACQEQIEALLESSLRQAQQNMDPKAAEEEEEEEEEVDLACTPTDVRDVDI
CDK4/Cyclin D1, sequence (P11802 whole entry): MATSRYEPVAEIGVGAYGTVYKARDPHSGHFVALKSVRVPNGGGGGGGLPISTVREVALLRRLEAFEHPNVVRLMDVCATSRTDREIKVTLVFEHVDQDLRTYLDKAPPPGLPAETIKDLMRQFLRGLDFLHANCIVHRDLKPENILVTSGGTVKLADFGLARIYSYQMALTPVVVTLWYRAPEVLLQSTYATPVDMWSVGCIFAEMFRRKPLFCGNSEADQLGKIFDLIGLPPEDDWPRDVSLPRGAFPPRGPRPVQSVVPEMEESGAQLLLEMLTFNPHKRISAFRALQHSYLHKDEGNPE
CDK4/Cyclin D1, sequence (P24385 whole entry partner): as the sequence (P24385 whole entry partner) above

On to `Cc1c(-c2nc(Nc3ccc(C4CCCN(C)C4)cn3)ncc2F)sc2c1C(=O)N(C)CC21CC1` (stereo not drawn) [Example 30, 2′-(5-Fluoro-2-((5-(1-methyl-piperidin-3-yl)pyridin-2-yl)amino)pyrimidin-4-yl)-3′,5′-dimethyl-5′,6′-dihydro-4′H-spiro[cyclopropane-1,7′-thieno[3,2-c]pyridin]-4′-one], for which the IC50 in test [1] is ≤ 20 nM; in test [2], ≤ 20 nM; in test [3] (Homo sapiens, 240 h), 20 to 200 nM.

With `Cc1c(-c2nc(Nc3ccc(C4CCN(C5CCOC5)CC4)cn3)ncc2F)sc2c1C(=O)N(C)CC21CC1` (stereo not drawn) [Example 32, 2′-(5-Fluoro-2-((5-(1-(tetrahydrofuran-3-yl)piperidin-4-yl)pyridin-2-yl)amino)pyrimidin-4-yl)-3′,5′-dimethyl-5′,6′-dihydro-4′H-spiro[cyclopropane-1,7′-thieno[3,2-c]pyridin]-4′-one], the IC50 in test [1] was ≤ 20 nM; in test [2], ≤ 20 nM; in test [3] (Homo sapiens, 240 h) it was 20 to 200 nM.

In the case of `Cc1c(-c2nc(Nc3ccc(N4CC5(C4)CN(C(C)C)C5)cn3)ncc2F)sc2c1C(=O)N(C)CC21CC1` [Example 34, 2′-(5-Fluoro-2-((5-(6-isopropyl-2,6-diazaspiro[3.3]heptan-2-yl)pyridin-2-yl)amino)pyrimidin-4-yl)-3′,5′-dimethyl-5′,6′-dihydro-4′H-spiro[cyclopropane-1,7′-thieno[3,2-c]pyridin]-4′-one], the IC50 is ≤ 20 nM in test [1]; ≤ 20 nM in test [2]; ≤ 20 nM in test [3] (Homo sapiens, 240 h).

For the compound `Cc1c(-c2nc(Nc3ccc(N4CCC5(CC4)CN(C)C5)cn3)ncc2F)sc2c1C(=O)N(C)CC21CC1` [Example 36, 2′-(5-Fluoro-2-((5-(2-methyl-2,7-diazaspiro[3.5]nonan-7-yl)pyridin-2-yl)amino)pyrimidin-4-yl)-3′,5′-dimethyl-5′,6′-dihydro-4′H-spiro[cyclopropane-1,7′-thieno[3,2-c]pyridin]-4′-one], the IC50 is ≤ 20 nM in test [1]; ≤ 20 nM in test [2]; 20 to 200 nM in test [3] (Homo sapiens, 240 h).

In the case of `Cc1c(-c2nc(Nc3ccc(N4CCC5(CCN(C)C5)C4)cn3)ncc2F)sc2c1C(=O)N(C)CC21CC1` (stereo not drawn) [Example 37, 2′-(5-Fluoro-2-((5-(7-methyl-2,7-diazaspiro[4.4]nonan-2-yl)pyridin-2-yl)amino)pyrimidin-4-yl)-3′,5′-dimethyl-5′,6′-dihydro-4′H-spiro[cyclopropane-1,7′-thieno[3,2-c]pyridin]-4′-one], the IC50 in test [1] was ≤ 20 nM; in test [2], ≤ 20 nM; in test [3] (Homo sapiens, 240 h) it was 20 to 200 nM.

Take `CN1CCC(c2ccc(Nc3nc(-c4cc5c(s4)C4(CC4)CN(C)C5=O)ncc3C(F)(F)F)nc2)CC1` [Example 40, 5-Methyl-2-[4-[[5-(1-methylpiperidin-4-yl)pyridin-2-yl]amino]-5-(trifluoromethyl)pyrimidin-2-yl]spiro[6H-thieno[3,2-c]pyridine-7,1′-cyclopropane]-4-one]: the IC50 in test [1] was ≤ 20 nM; in test [2], ≤ 20 nM; in test [3] (Homo sapiens, 240 h), ≤ 20 nM.

On to `Cc1cnc(Nc2ccc(N3CCC4(CC3)CN(C)C4)cn2)nc1-c1cc2c(s1)C1(CC1)CN(C)C2=O` [Example 43, 5-methyl-2-[5-Methyl-2-[[5-(2-methyl-2,7-diazaspiro[3.5]nonan-7-yl)pyridin-2-yl]amino]pyrimidin-4-yl]spiro[6H-thieno[3,2-c]pyridine-7,1′-cyclopropane]-4-one], for which the IC50 is ≤ 20 nM in test [1]; ≤ 20 nM in test [2]; 20 to 200 nM in test [3] (Homo sapiens, 240 h).

Regarding `CCN1CC2(C1)CN(c1ccc(Nc3ncc(Cl)c(-c4cc5c(s4)C4(CC4)CN(C)C5=O)n3)nc1)C2` [Example 45, 2-[5-Chloro-2-[[5-(6-ethyl-2,6-diazaspiro[3.3]heptan-2-yl)pyridin-2-yl]amino]pyrimidin-4-yl]-5-methylspiro[6H-thieno[3,2-c]pyridine-7,1′-cyclopropane]-4-one], the IC50 in test [1] was ≤ 20 nM; in test [2], ≤ 20 nM; in test [3] (Homo sapiens, 240 h), ≤ 20 nM.

As for `CN1CC2(CCC2)c2sc(-c3nc(Nc4ccc(N5CC6CC(C5)N6C)cn4)ncc3F)cc2C1=O` [Example 46, 2′-(5-Fluoro-2-((5-(6-methyl-3,6-diazabicyclo[3.1.1]heptan-3-yl)pyridin-2-yl)amino)pyrimidin-4-yl)-5′-methyl-5′,6′-dihydro-4′H-spiro[cyclobutane-1,7′-thieno[3,2-c]pyridin]-4′-one], the IC50 in test [1] is ≤ 20 nM; in test [2] it was 20 to 200 nM; in test [3] (Homo sapiens, 240 h) it was 20 to 200 nM.

Consider `CCN1CC2(C1)CN(c1ccc(Nc3ncc(F)c(-c4sc5c(c4C)C(=O)N(C)CC54CCC4)n3)nc1)C2` [Example 52, 2′-(2-((5-(6-Ethyl-2,6-diazaspiro[3.3]heptan-2-yl)pyridin-2-yl)amino)-5-fluoropyrimidin-4-yl)-3′,5′-dimethyl-5′,6′-dihydro-4′H-spiro[cyclobutane-1,7′-thieno[3,2-c]pyridin]-4′-one], for which the IC50 in test [1] was ≤ 20 nM; in test [2] it was ≤ 20 nM; in test [3] (Homo sapiens, 240 h) it was 20 to 200 nM.

For `CN1CC2(CCC2)c2sc(-c3nc(Nc4ccc(N5CCN6CCC5CC6)cn4)ncc3F)cc2C1=O` [Example 53, 2′-(2-((5-(1,4-Diazabicyclo[3.2.2]nonan-4-yl)pyridin-2-yl)amino)-5-fluoropyrimidin-4-yl)-5′-methyl-5′,6′-dihydro-4′H-spiro[cyclobutane-1,7′-thieno[3,2-c]pyridin]-4′-one], the IC50 in test [1] is ≤ 20 nM; in test [2], 20 to 200 nM; in test [3] (Homo sapiens, 240 h), 20 to 200 nM.

For the compound `Cc1c(-c2nc(Nc3ccc(N4CC5(CCN(C)C5)C4)cn3)ncc2F)sc2c1C(=O)N(C)CC21CCC1` [Example 54, 2′-(5-Fluoro-2-((5-(6-methyl-2,6-diazaspiro[3.4]octan-2-yl)pyridin-2-yl)amino)pyrimidin-4-yl)-3′,5′-dimethyl-5′,6′-dihydro-4′H-spiro[cyclobutane-1,7′-thieno[3,2-c]pyridin]-4′-one], the IC50 is ≤ 20 nM in test [1]; ≤ 20 nM in test [2]; 20 to 200 nM in test [3] (Homo sapiens, 240 h).

For the compound `Cc1c(-c2nc(Nc3ccc(N4C[C@H]5CN(C)C[C@H]5C4)cn3)ncc2F)sc2c1C(=O)N(C)CC21CCC1` [Example 57, 2′-(5-Fluoro-2-((5-((3aR,6aS)-5-methylhexahydropyrrolo[3,4-c]pyrrol-2(1H)-yl)pyridin-2-yl)amino)pyrimidin-4-yl)-3′,5′-dimethyl-5′6′-dihydro-4′H-spiro[cyclobutane-1,7′-thieno[3,2-c]pyridin]-4′-one], the IC50 in test [1] is ≤ 20 nM; in test [2] it was ≤ 20 nM; in test [3], 20 to 200 nM.

With `CN1CCC(c2ccc(Nc3nc(-c4cc5c(s4)C4(CCC4)CN(C)C5=O)ncc3C(F)(F)F)nc2)CC1` [Example 58], the IC50 in test [1], in test [2] and in test [3] was ≤ 20 nM throughout.
